The structures appear in SMILES notation.

Series [1] can be described thus: Particle size of milled product by Malvern Mastersizer 2000 (laser diffraction). Format: physicochemical. Conditions: for X10 / X50 / X90 (90% cumulative undersize): Example 4: piroxicam milled in supercritical CO2, 120 min, by collection method.
A short description of series [2]: Surface area measurements (BET) of milled product. In kind it is physicochemical. Conditions: Example 4: piroxicam milled in supercritical CO2; for BET: Table 2. From the text:
The yield of the run with the depressurization was 10.7 grams, while in the case of the nozzle dispersion only 2.4 grams were recovered.

Where [3] appears, read: Example 2: ibuprofen + sodium lauryl sulfate milled in supercritical CO2, ceramic media, 60 min.
[4] abbreviates: Example 1: lactose + oleic acid milled in supercritical CO2, nylon media, 60 min.
The mark [5] stands for this setting: Example 3: lactose mono hydrate + Span85 milled in liquified HFC 134a, 1000 psi, 60 min.

As for `CN1C(C(=O)Nc2ccccn2)=C(O)c2ccccc2S1(=O)=O` [Test 1, piroxicam], in series [1], the X10 was 3.00 micron, the X50 is given as 5.70 micron and the “X90 (90% cumulative undersize)” value came out at 10.9 micron. This compound came in with a BET in series [2] of 11.8 sq. m/g. Moreover, the “surface area (BET), specific surface area” value in series [2] (listed as product collected in the filter before depressurization) came out at 11.8 sq meter per gram.
Regarding `CN1C(C(=O)Nc2ccccn2)=C(O)c2ccccc2S1(=O)=O` [Test 2, piroxicam], in series [1], the X10 was 0.08 micron, the X50 is given as 0.26 micron and the “X90 (90% cumulative undersize)” value amounted to 2.04 micron. For the same compound, the BET in series [2] came out at 9.4 sq. m/g. Also, the “surface area (BET), specific surface area” value in series [2] (listed as nozzle dispersed material) was determined as 9.7 sq meter per gram.
With `CC(C)Cc1ccc(C(C)C(=O)O)cc1` (stereo not shown) [ibuprofen], in series [1] (setting [3]), the 10% cumulative undersize is 1.097 micron and the median size worked out at 2.6 micron. For the same compound, in series [1] (Example 2: ibuprofen + sodium lauryl sulfate milled in supercritical CO2, due to agglomeration), the 90% cumulative undersize worked out at 219 microns.
For `OC[C@H]1O[C@@H](O[C@H]2[C@H](O)[C@@H](O)C(O)O[C@@H]2CO)[C@H](O)[C@@H](O)[C@H]1O` (stereo partly shown) [lactose], in series [1] (setting [4]), the 10% cumulative undersize was 3.0 micron and the 90% cumulative undersize amounted to 796 micron. Also, the median particle size in series [1] (Example 1: lactose + oleic acid milled in supercritical CO2, nylon media, 60 min, collected in high pressure filter) stood at 75.889 microns. Further, in series [1] (setting [5]), the 10% cumulative undersize worked out at 1.059 micron, the 90% cumulative undersize is on record as 553 micron and the median particle size was 4.4 microns.

Source of the values: US20050258288A1, “High pressure media milling system and process of forming particles” (E. I. du Pont de Nemours and Company, priority 2003, published 2005).
